Measurements reported in patent US8497278B2, “Imidazo[1,2-a]pyridine compounds” (priority 2008, dated 2013).
Marks after values point to notes of the source that are not given here.

Columns and labels:
rhesus monkeys = assay: Rhesus monkey conflict test; assay type: in vivo; conditions: cumulative dosing
Excerpt: Conflict protocol: The conflict procedure is a well established operant conditioning approach to evaluate anxiolytic-like effects of test compounds. In this procedure, positively-reinforced behavior is suppressed by response-contingent administration of a noxious stimulus (i.e., mild electric shock). Compounds with anxiolytic effects in humans (e.g., benzodiazepines) characteristically increase rates of responding that are suppressed by shock and are referred to as anti-conflict or anxiolytic-like effects. […] In addition to anxiolytic-like effects, conflict procedures also provide an assessment of the ability of the animal to perform operant lever pressing. This is typically assessed by including lever pressing in the absence of the noxious stimulus. Most anxiolytic compounds will decrease rates of responding in the absence of shock at doses higher than those that induce anxiolytic-like effects. The effects contributing to anxiolytic-induced decreases in non-suppressed responding are not well understood, but likely consist of a combination of motor co-ordination deficits and sedative effects.
Adult rhesus monkeys were used in these studies (n=1-4). Weights of the monkeys ranged from 6.2 to 10.5 kg. The animals had been previously trained using the conflict procedure. Animals were maintained at 85-95% of their free-feeding weights by manipulation of food intake. Monkeys were individually housed with water available ad libitum, and maintained on a 12 hour lights-on/12 hour lights-off cycle (lights on at 0600 a.m.). Monkeys received Harlan Teklad diet (15% Primate Diet) as well as supplemental feeding (fruits, vegetables, and commercially available primate treats) daily. They were also given toys and video enrichment when not in an experimental session. Each animal was prepared prior to the study with a chronic indwelling venous catheter for drug delivery. A polyvinyl chloride catheter was implanted in a jugular, femoral or brachial vein under isoflurane anesthesia and aseptic conditions. The proximal end of the catheter terminated above the right atrium, and the distal end was passed subcutaneously to exit in the midscapular region. Experimental sessions began 5-7 days following surgery. Catheters had been implanted approximately 3 months to 1 year prior to the initiation of the study. During experimental sessions, monkeys were seated in primate chairs that were placed in ventilated sound-attenuating chambers. A single response lever was mounted on the wall of the chamber in front of the monkey. Each press of a lever produced an audible click and was recorded as a response via electromechanical equipment, a computer interface, and PC with specialized software. Food pellets could be delivered into a tray located next to the lever. Mild electric shock could be delivered to the bottom of the feet via brass electrodes that were fitted to shoes. Red and green lights mounted above the levers could be illuminated to serve as visual stimuli.
Monkeys were trained under a multiple schedule of food reinforcement adapted from Spealman (1979). A daily session consisted of 4 cycles, each preceded by a 10-min time out period in which all lights in the chamber were off and responding had no programmed consequences. Each cycle consisted of two components, component 1 and 2. Component 1 was signaled by red stimulus lights and consisted of an 18-response schedule (FR18) of food pellet delivery (i.e., the animal receives a food pellet following 18 responses). Component 2, signaled by green stimulus lights, followed immediately and consisted of the FR18 schedule of food delivery combined with a FR20 schedule of foot shock delivery (1.5-3.0 mA, adjusted for each monkey based on individual performance, 0.25 sec duration). Delivery of a food pellet (FR18 schedule) was followed by a 10 sec time out in which responses had no programmed consequences. […]

[1] = molecular target: T1, α5 subtype containing GABA-A receptors (Homo sapiens, UniProt P18507+P31644); assay: Two-electrode voltage clamp electrophysiology in Xenopus oocytes, potentiation of GABA EC20 response, α5; assay type: cell-based; conditions: 100 nM compound, read-out: Percentage of potentiation alpha5
T1 construct: expressed in transfected cells; host or cells: Xenopus laevis oocytes, cRNA injected
Method in brief: (§1)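 Xenopus oocytes expressing human α1, α2, α3 or α5 with β3 and γ2L subunits were voltage-clamped at −80 mV in ND96, pH 7.5. Potentiation of the GABA EC20 (60 μM) response by test compounds at 100 nM was measured, with one compound per oocyte. Oocytes showing low current or poor γ2L incorporation, judged by 1 μM chlordiazepoxide response, were excluded.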

[2] = molecular target: T2, α3 subtype containing GABA-A receptors (Homo sapiens, UniProt P18507+P34903); assay: Two-electrode voltage clamp electrophysiology in Xenopus oocytes, potentiation of GABA EC20 response, α3; assay type: cell-based; conditions: 100 nM compound, read-out: Percentage of potentiation alpha3
T2 construct: expressed in transfected cells; host or cells: Xenopus laevis oocytes, cRNA injected
Method in brief: as §1

T1 sequence (P31644 32-462): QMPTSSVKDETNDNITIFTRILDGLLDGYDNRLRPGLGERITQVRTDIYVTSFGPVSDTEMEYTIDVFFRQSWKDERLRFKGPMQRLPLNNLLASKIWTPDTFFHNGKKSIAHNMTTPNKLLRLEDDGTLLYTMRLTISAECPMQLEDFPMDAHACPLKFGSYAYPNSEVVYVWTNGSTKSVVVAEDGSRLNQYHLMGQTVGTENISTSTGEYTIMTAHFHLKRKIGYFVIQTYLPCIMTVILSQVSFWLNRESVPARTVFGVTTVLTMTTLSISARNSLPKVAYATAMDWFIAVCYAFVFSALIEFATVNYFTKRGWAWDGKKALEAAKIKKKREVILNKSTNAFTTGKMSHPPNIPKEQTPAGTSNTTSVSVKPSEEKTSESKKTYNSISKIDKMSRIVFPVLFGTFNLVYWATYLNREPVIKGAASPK
T1 sequence (P28472 26-473 partner): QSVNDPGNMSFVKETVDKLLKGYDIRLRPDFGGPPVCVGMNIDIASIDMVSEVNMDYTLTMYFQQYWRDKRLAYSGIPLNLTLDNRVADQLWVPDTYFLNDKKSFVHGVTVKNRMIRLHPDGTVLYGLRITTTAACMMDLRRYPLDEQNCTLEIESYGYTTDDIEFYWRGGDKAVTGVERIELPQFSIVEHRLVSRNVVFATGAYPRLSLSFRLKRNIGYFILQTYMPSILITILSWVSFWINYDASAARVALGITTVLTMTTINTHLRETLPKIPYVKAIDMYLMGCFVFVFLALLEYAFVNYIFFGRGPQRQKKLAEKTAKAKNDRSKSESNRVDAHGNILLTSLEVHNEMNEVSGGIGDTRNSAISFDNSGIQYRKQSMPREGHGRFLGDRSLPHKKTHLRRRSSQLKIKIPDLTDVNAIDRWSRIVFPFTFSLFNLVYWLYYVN
T1 sequence (P18507 40-475): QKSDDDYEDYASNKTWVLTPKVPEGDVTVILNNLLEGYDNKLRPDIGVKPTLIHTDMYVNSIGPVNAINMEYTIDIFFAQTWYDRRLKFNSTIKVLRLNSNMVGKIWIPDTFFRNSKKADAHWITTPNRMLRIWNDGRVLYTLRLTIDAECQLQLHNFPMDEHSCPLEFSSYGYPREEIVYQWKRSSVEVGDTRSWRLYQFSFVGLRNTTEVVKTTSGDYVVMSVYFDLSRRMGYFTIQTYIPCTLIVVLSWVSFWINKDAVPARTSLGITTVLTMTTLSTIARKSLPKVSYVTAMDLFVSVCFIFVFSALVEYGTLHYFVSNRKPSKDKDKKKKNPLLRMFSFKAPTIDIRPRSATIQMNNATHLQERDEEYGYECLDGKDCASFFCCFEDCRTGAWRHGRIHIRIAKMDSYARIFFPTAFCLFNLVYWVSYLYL
T2 sequence (P34903 29-492): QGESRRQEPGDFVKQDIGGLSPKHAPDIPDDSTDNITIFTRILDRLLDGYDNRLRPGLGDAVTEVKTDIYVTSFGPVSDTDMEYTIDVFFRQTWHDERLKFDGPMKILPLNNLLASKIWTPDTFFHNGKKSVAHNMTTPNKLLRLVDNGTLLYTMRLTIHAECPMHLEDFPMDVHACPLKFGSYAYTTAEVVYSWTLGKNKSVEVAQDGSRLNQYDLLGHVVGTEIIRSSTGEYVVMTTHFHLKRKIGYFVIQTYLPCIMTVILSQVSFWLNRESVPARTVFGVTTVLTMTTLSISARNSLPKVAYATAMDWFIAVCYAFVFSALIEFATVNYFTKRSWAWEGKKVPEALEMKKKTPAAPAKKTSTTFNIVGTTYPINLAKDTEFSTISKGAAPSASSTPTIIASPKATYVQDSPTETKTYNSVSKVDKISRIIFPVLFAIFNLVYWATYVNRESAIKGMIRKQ
T2 sequence (P28472 26-473 partner): as the sequence (P28472 26-473 partner) above
T2 sequence (P18507 40-475): as the sequence (P18507 40-475) above

## Clc1ccc(-c2nc3cccnn3c2Cn2cncn2)cc1 [Compound 32, 3-((1H-1,2,4-triazol-1-yl)methyl)-2-(4-chlorophenyl)imidazo[1,2-b]pyridazine]
Rhesus monkeys; 0.1 mg/kg IV
  Non-Suppressed Response Rates Mean ± S.E.M.: 2.50 ± 0.29 Responses/Second
  Suppressed Response Rates Mean ± S.E.M.: 0.03 ± 0.01 Responses/Second
Rhesus monkeys; 0.3 mg/kg IV
  Non-Suppressed Response Rates Mean ± S.E.M.: 2.58 ± 0.44 Responses/Second
  Suppressed Response Rates Mean ± S.E.M.: 0.24 ± 0.17 Responses/Second
Rhesus monkeys; 1 mg/kg IV
  Non-Suppressed Response Rates Mean ± S.E.M.: 1.82 ± 0.67 Responses/Second
  Suppressed Response Rates Mean ± S.E.M.: 1.1 ± 0.67 Responses/Second
Rhesus monkeys; 3 mg/kg IV
  Non-Suppressed Response Rates Mean ± S.E.M.: 1.77 ± 0.64 Responses/Second
  Suppressed Response Rates Mean ± S.E.M.: 1.19 ± 0.36 Responses/Second

## NC(=O)c1ncn(Cc2c(-c3ccc(Cl)cc3)nc3ccccn23)n1 [Compound 72, 1-((2-(4-chlorophenyl)imidazo[1,2-a]pyridin-3-yl)methyl)-1H-1,2,4-triazole-3-carboxamide]
[1]
  activation at 0.1 µM: -10 to 10%
[2]
  activation at 0.1 µM: 10 to 50%

## Cc1ccn(Cc2c(-c3ccc(Cl)cc3)nc3ccccn23)c(=O)n1 [Compound 105, 1-((2-(4-chlorophenyl)imidazo[1,2-a]pyridin-3-yl)methyl)-4-methylpyrimidin-2(1H)-one]
Rhesus monkeys; 0.1 mg/kg IV
  Non-Suppressed Response Rates Mean ± S.E.M.: 2.68 ± 0.37 Responses/Second
  Suppressed Response Rates Mean ± S.E.M.: 0.02 ± 0.01 Responses/Second
Rhesus monkeys; 0.3 mg/kg IV
  Non-Suppressed Response Rates Mean ± S.E.M.: 2.68 ± 0.39 Responses/Second
  Suppressed Response Rates Mean ± S.E.M.: 0.47 ± 0.44 Responses/Second
Rhesus monkeys; 1 mg/kg IV
  Non-Suppressed Response Rates Mean ± S.E.M.: 2.78 ± 0.36 Responses/Second
  Suppressed Response Rates Mean ± S.E.M.: 0.79 ± 0.45 Responses/Second
Rhesus monkeys; 3 mg/kg IV
  Non-Suppressed Response Rates Mean ± S.E.M.: 1.02 ± 0.57 Responses/Second
  Suppressed Response Rates Mean ± S.E.M.: 0.46 ± 0.32 Responses/Second

## Cn1ncnc1Cc1c(-c2ccc(F)cc2)nc2ccc(F)cn12 [Compound 200, 6-fluoro-2-(4-fluorophenyl)-3-((1-methyl-1H-1,2,4-triazol-5-yl)methyl)imidazo[1,2-a]pyridine]
Rhesus monkeys; 0.3 mg/kg IV
  Non-Suppressed Response Rates Mean ± S.E.M.: 3.2 Responses/Second
  Suppressed Response Rates Mean ± S.E.M.: 0.02 Responses/Second
Rhesus monkeys; 1 mg/kg IV
  Non-Suppressed Response Rates Mean ± S.E.M.: 2.9 Responses/Second
  Suppressed Response Rates Mean ± S.E.M.: 0.02 Responses/Second
Rhesus monkeys; 1.8 mg/kg IV
  Non-Suppressed Response Rates Mean ± S.E.M.: 2.4 Responses/Second
  Suppressed Response Rates Mean ± S.E.M.: 1.4* Responses/Second
Rhesus monkeys; 3 mg/kg IV
  Non-Suppressed Response Rates Mean ± S.E.M.: 3.1 Responses/Second
  Suppressed Response Rates Mean ± S.E.M.: 1.2* Responses/Second
Rhesus monkeys; 5.6 mg/kg IV
  Non-Suppressed Response Rates Mean ± S.E.M.: 3.3 Responses/Second
  Suppressed Response Rates Mean ± S.E.M.: 1.9* Responses/Second
